# Experimental data: patent publication US9113629B2, “4-amino-6-(4-substituted-phenyl)-picolinates and 6-amino-2-(4-substituted-phenyl)-pyrimidine-4-carboxylates and their use as herbicides” (DOW AGROSCIENCES LLC, priority 2013, dated 2015)
# Where two headings read alike, the source gives them in different places.
# How the values were obtained:
# [1] = test system: Key Broadleaf Weed and Crop Species; experiment: Post-emergent Test II herbicidal activity (Table 5); format: in vivo; conditions: post-emergence, 336 h, 14 days after application; for pest or weed control at 66 g/ha: application rate 66 g ai/ha; for pest or weed control at 132 g/ha: application rate 132 g ai/ha
# Summary of the method: (§1)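 Injury was rated visually 14 d after treatment on a 0–100% scale against untreated controls. Test compounds, formulated with crop oil concentrate and surfactant and serially diluted down to 1/16× of the top rate, were applied by track sprayer at 187 L/ha onto first- to second-true-leaf seedlings.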
# [2] = test system: Key Grass and Sedge Weeds as well as Grass Crops; experiment: Post-emergent Test II herbicidal activity (Table 6); format: in vivo; conditions: post-emergence, 336 h; for pest or weed control at 66 g/ha: 66 g ai/ha; for pest or weed control at 132 g/ha: 132 g ai/ha
# Summary of the method: as §1
# [3] = ABUTH: velvetleaf (Abutilon theophrasti), read-out: Visual Growth Reduction (%) 14 Days After Application, ABUTH
# [4] = AMARE: redroot pigweed (Amaranthus retroflexus), read-out: Visual Growth Reduction (%) 14 Days After Application, AMARE
# [5] = BRSNN: oilseed-rape, canola (Brassica napus), read-out: Visual Growth Reduction (%) 14 Days After Application, BRSNN
# [6] = CHEAL: lambsquarters (Chenopodium album), read-out: Visual Growth Reduction (%) 14 Days After Application, CHEAL
# [7] = EPHHL: wild poinsettia (Euphorbia heterophylla), read-out: Visual Growth Reduction (%) 14 Days After Application, EPHHL
# [8] = HELAN: sunflower (Helianthus annuus), read-out: Visual Growth Reduction (%) 14 Days After Application, HELAN
# [9] = VIOTR: wild pansy (Viola tricolor), read-out: Visual Growth Reduction (%) 14 Days After Application, VIOTR
# [10] = CYPES: yellow nutsedge (Cyperus esculentus), read-out: Visual Growth Reduction (%) 14 Days After Application, CYPES
# [11] = DIGSA: crabgrass (Digitaria sanguinalis), read-out: Visual Growth Reduction (%) 14 Days After Application, DIGSA
# [12] = ECHCG: barnyardgrass (Echinochloa crus-galli), read-out: Visual Growth Reduction (%) 14 Days After Application, ECHCG
# [13] = ORYSA: rice (Oryza sativa), crop, read-out: Visual Growth Reduction (%) 14 Days After Application, ORYSA
# [14] = SETFA: giant foxtail (Setaria faberi), read-out: Visual Growth Reduction (%) 14 Days After Application, SETFA
# [15] = SORVU: grain sorghum (Sorghum vulgare), read-out: Visual Growth Reduction (%) 14 Days After Application, SORVU
# [16] = TRZSS (wheat, Triticum aestivum), crop, read-out: Visual Growth Reduction (%) 14 Days After Application, TRZSS
# [17] = ZEAMX: maize, corn (Zea mays), crop, read-out: Visual Growth Reduction (%) 14 Days After Application, ZEAMX
smiles,measurement,setting,value
COC(=O)c1nc(-c2ccc(C)c(F)c2)c(F)c(N)c1Cl [Compound 213],pest or weed control at 66 g/ha,[1]; [3],95 to 100%
same,pest or weed control at 132 g/ha,[1]; [3],95 to 100%
same,pest or weed control at 66 g/ha,[1]; [4],95 to 100%
same,pest or weed control at 132 g/ha,[1]; [4],95 to 100%
same,pest or weed control at 66 g/ha,[1]; [5],85 to 94%
same,pest or weed control at 132 g/ha,[1]; [5],85 to 94%
same,pest or weed control at 66 g/ha,[1]; [6],95 to 100%
same,pest or weed control at 132 g/ha,[1]; [6],95 to 100%
same,pest or weed control at 66 g/ha,[1]; [7],95 to 100%
same,pest or weed control at 132 g/ha,[1]; [7],95 to 100%
same,pest or weed control at 66 g/ha,[1]; [8],95 to 100%
same,pest or weed control at 132 g/ha,[1]; [8],95 to 100%
same,pest or weed control at 66 g/ha,[1]; [9],0 to 29%
same,pest or weed control at 132 g/ha,[1]; [9],0 to 29%
same,melting point,,127 °C
same,pest or weed control at 66 g/ha,[2]; [10],0 to 29%
same,pest or weed control at 132 g/ha,[2]; [10],45 to 59%
same,pest or weed control at 66 g/ha,[2]; [11],0 to 29%
same,pest or weed control at 132 g/ha,[2]; [11],0 to 29%
same,pest or weed control at 66 g/ha,[2]; [12],85 to 94%
same,pest or weed control at 132 g/ha,[2]; [12],85 to 94%
same,pest or weed control at 66 g/ha,[2]; [13],0 to 29%
same,pest or weed control at 132 g/ha,[2]; [13],0 to 29%
same,pest or weed control at 66 g/ha,[2]; [14],0 to 29%
same,pest or weed control at 132 g/ha,[2]; [14],0 to 29%
same,pest or weed control at 66 g/ha,[2]; [15],75 to 84%
same,pest or weed control at 132 g/ha,[2]; [15],95 to 100%
same,pest or weed control at 66 g/ha,[2]; [16],0 to 29%
same,pest or weed control at 132 g/ha,[2]; [16],0 to 29%
same,pest or weed control at 66 g/ha,[2]; [17],60 to 74%
same,pest or weed control at 132 g/ha,[2]; [17],75 to 84%
